This note sets out measurements from patent US8911953B2, “TDF-related compounds and analogs thereof, analogs and bioactive fragments” (Thrasos Innovation, Inc., priority 2005, dated 2014).

Positions of bridges follow the written chain, without caps; N, C: chain ends. No end group written: not given here.

Test [1] relates to bladder cancer cells (5637). Kind of test: Cisplatin-induced apoptosis/necrosis in bladder cancer cells. It is filed as cell-based, human. Conditions: cisplatin at different concentrations.
Test [2] concerns rat osteosarcoma (17/2.8) cells. Description: Rat osteosarcoma (ROS) cell-based alkaline phosphatase assay. Conditions: 0.02-200 uM, 2 days, relative to BMP-7 standard. Here is the method:
BMP interactions with Type I and Type II receptors can induce alkaline phosphatase activity, a marker for osteoblast activity, in ROS cells. An assay procedure as described in Maliakal, J. C., Asahina, I., Hauschka, P. V., and Sampath, T. K. (1994) Growth factors 11, 227-234, was used to determine the biological activities of TDFRP compounds. In a typical experiment, rat osteosarcoma (17/2.8) cells are plated in 96 well plates (3.0×10^4 cells/well) and incubated overnight at 37 C in 5-6% CO2 incubator. The next day, healthy and confluent cells are treated with increasing concentrations of BMP-7 standard (1-10,000 ng/ml) served as positive control or TDFRP compounds (0.02-200 uM) prepared in medium containing 1% FBS and incubated for 2 days at 37 C in 5-6% CO2 incubator. The cellular content of alkaline phosphatase activity is determined by the method of Reddi and Huggins (Reddi, A. H., and Huggins, C. B (1972) Proc. Natl. Acad. Sci. USA 69, 1601-1605). Enzyme estimations are performed in 96 well plates. Following removal of culture medium, cells are washed with pre-warmed PBS (150 ul) and incubated in 100 ul of pre-warmed 1% Triton X-100 for 30 minutes at 37 C. Plates are centrifuged for 10 minutes at full speed, and recovered samples (15 ul) are assayed for enzyme activity by adding 90 ul p-nitrophenyl phosphate (Sigma) as a substrate in 0.05 M glycine-NaOH buffer, pH 9.3 and incubating for 20 minutes at 37 C. The reaction is stopped by adding 75 ul of 0.2 N NaOH/well and absorbance at 405/490 nm is measured on a Dynatech MR 700 plate reader. Results are expressed as relative activities compared to a BMP-7 standard.
BMP interactions with Type I and Type II receptors can induce alkaline phosphatase activity, a marker for osteoblast activity, in ROS cells. An assay procedure as described earlier (Maliakal, J. C., Asahina, I., Hauschka, P. V., and Sampath, T. K. (1994) Growth factors 11, 227-234) was used to determine the biological activities of TDFRP compounds. In a typical experiment, rat osteosarcoma (17/2.8) cells are plated in 96 well plates (3.0×10^4 cells/well) and incubated overnight at 37° C. in 5-6% CO2 incubator. […] The cellular content of alkaline phosphatase activity is determined by the method of Reddi and Huggins (Reddi, A. H., and Huggins, C. B (1972) Proc. Natl. Acad. Sci. USA 69, 1601-1605). […] The reaction is stopped by adding 75 ul of 0.2 N NaOH/well and absorbance at 405/490 nm is measured on a Dynatech MR 700 plate reader. Results are expressed as relative activities compared to a BMP-7 standard.

The subject of the next test is NTN mice. Kind of test: Nephrotoxic serum nephritis (NTN) model of chronic renal failure. It counts as in vivo, mouse. Conditions: oral 5 mg/kg/24 hr, weeks 6-9. An excerpt:
Attenuation of renal fibrosis progression by TDFRP compound in the chronic renal failure mouse model, nephrotoxic serum nephritis (NTN). A: NTN Model Experimental Protocol. Nephrotoxic serum was given intravenously on Day 0 (D0) and animals were sacrificed either at 6 weeks or 9 weeks. Two different drug regimens were used: treatment from weeks 1-6 or from weeks 6-9. B: Kidney section of 6-9 week, vehicle-treated […] animal, C: Kidney section of animal received oral administration of TDFRP compound (SEQ ID NO 45) (5 mg/kg/24 hr) from weeks 6-9.
Renal fibrosis involves interestitial fibrosis, tubular atrophy, and glomerulosclerosis. The mouse nephrotoxic serum nephritis (NTN) renal fibrosis model mimics human chronic renal injury. NTN mice develop glomerulonephritis following injection with nephrotoxic serum (NTS), which progresses to tubulointerstitial disease and eventually renal fibrosis after 6 weeks (see Lloyd, et al. (1997) J. Exp. Med. 185, 1371-1380.; Zeisberg et al. (2003) Nat. Med. 9, 964-968.)
Nephrotoxic serum nephritis (NTN) is a model of progressive chronic renal injury. Mice given injections of nephrotoxic serum (NTS) develop glomerulonephritis, leading to tubulointerstitial disease associated with EMT, and ultimately renal fibrosis, over a period of about six weeks. […] In these studies, BMP-7 was able to restore expression of E-cadherin proteins in previously damaged tubules. […] For a review of the above see, Zeisberg et al., Nature Medicine, 9; 7 pp 964-968, (2003) and Kalluri et al., J. Clin Investigation 112:1776-1784 (2003).

Consider “CYFDDSSNVLCKKYRS (disulfide 1-11 (inferred); not fully specified) [SEQ ID NO:45]”, for which, in test [1], the “apoptosis/necrosis induced by cisplatin (interference with anti-tumor activity)” value is “does not alter”. For the same sequence, the “induction of alkaline phosphatase activity” value in test [2] is on record as “did not induce”. Also, in the test on NTN mice, the glomerulosclerosis result is given as “attenuated the severity of glomerulosclerosis”, the matrix deposition entry is on record as “attenuated the amount of matrix deposition” and the tubular atrophy result was “attenuated the severity of tubular atrophy”. In the test with NTN mice (5 mg/kg), the “progression of renal fibrosis” value is “significantly attenuated”.
